Reference: patent USRE48461E1, “Modulation of androgen receptor expression” (Ionis Pharmaceuticals, Inc., priority 2012, dated 2021)

Legend:
Type in all cases: cell-based, human
AR mRNA [1] = assay: Time-course AR mRNA expression in C4-2B cells (8, 24, 48 hours); conditions: for Percent expression of AR compared to the control group in 8 hours / Percent expression of AR compared to the control group in 24 hours / Percent expression of AR compared to the control group in 48 hours: C4-2B cells
Description: C4-2B cells were plated at 1,000 cells per well in complete medium. […] After a treatment period of 8 hours, 24 hours, and 48 hours, AR expression was measured with primer probe set hAR-LTS00943.

AR V7 variant mRNA = assay: AR V7 variant RNA in 22RV1 cells; conditions: RNAiMax, 48 hrs
AR mRNA [2] = assay: AR RNA expression in C4-2B cells (complete, CSS+DHT medium; Example 30); conditions: 48 hrs
Description: (§1) Cells were plated at 1,000 cells per well. […] ISIS 549148 was included as a negative control. […] After an incubation period of 48 hrs, RNA levels of AR, PSA and TMPRSS2 were measured.
(§2) Cells were plated at 2,000 cells per well and cultured in CSS media with 1 nM DHT. […] ISIS 549148 was included as a negative control. […] After an incubation period of 48 hrs, RNA levels of AR, PSA and TMPRSS2 were measured. In the absence of DHT, AR expression in C4-2 cells was 188%, PSA expression was 43% and TMPRSS2 expression was 27% compared to the untreated control.

[3] = tested on: prostate-specific antigen (PSA) mRNA; assay: PSA mRNA levels in LMR20 cells; conditions: with or without DHT/R1881
Description: LMR20 cells were plated at 1,500 cells per well in phenol red-free medium with CSS. […] Results are presented in Tables 43-45 as mRNA levels expressed as a percentage of the baseline values. mRNA levels may be lowered or increased after treatment.

C4-2B cells = assay: C4-2B cell proliferation, ASO in combination with MDV3100 (Example 21); conditions: for Proliferation (% untreated control) in C4-2B without MDV-3100: 5 days
Description: C4-2B cells were plated at 1,000 cells per well. […] ISIS 549148 was included as a negative control. […] After a treatment period of 5 days, the proliferative capacity of the cancer cells was measured with CellTiter 96® AQueous One Solution Cell Proliferation kit (Promega), following the manufacturer's instructions. […]

LNCaP cells = assay: LNCaP cell proliferation, ASO in combination with MDV3100 (Example 20); conditions: for Proliferation (% untreated control) in LNCaP without MDV-3100: 5 days
Description: LNCaP cells were plated at 1,000 cells per well. […] ISIS 549148 was included as a negative control. […] After a treatment period of 5 days, the proliferative capacity of the cancer cells was measured with CellTiter 96® AQueous One or CellTiter-Glo® Solution Cell Proliferation kit (Promega), following the manufacturer's instructions. […]

TMPRSS2 mRNA = assay: TMPRSS2 expression in C4-2B cells (Example 30); conditions: 48 hrs
Description: as §1, §2

[4] = ASO dose 0.04 μM + 0.08 μM MDV-3100
[5] = ASO dose 0.04 μM + 0.4 μM MDV-3100
[6] = ASO dose 0.04 μM + 2.0 μM MDV-3100
[7] = ASO dose 0.04 μM + […] MDV-3100
[8] = ASO dose 0.08 μM + 0.08 μM MDV-3100
[9] = ASO dose 0.08 μM + 0.4 μM MDV-3100
[10] = ASO dose 0.08 μM + 2.0 μM MDV-3100
[11] = ASO dose 0.08 μM + […] MDV-3100
[12] = ASO dose 0.2 μM + 0.08 μM MDV-3100
[13] = ASO dose 0.2 μM + 0.4 μM MDV-3100
[14] = ASO dose 0.2 μM + 2.0 μM MDV-3100
[15] = ASO dose 1.0 μM + 0.08 μM MDV-3100
[16] = ASO dose 1.0 μM + 0.4 μM MDV-3100
[17] = ASO dose 1.0 μM + 2.0 μM MDV-3100

TTGATTTAATGGTTGC [ISIS 560131] (MOE and (S)-cEt gapmer chemistry, further chemistry not given here) [targets intron 1]
Percent expression of AR compared to the control group in 8 hours (AR mRNA [1]; 0.04 μM): 110%
Percent expression of AR compared to the control group in 24 hours (AR mRNA [1]; 0.04 μM): 47%
Percent expression of AR compared to the control group in 48 hours (AR mRNA [1]; 0.04 μM): 33%
Percent expression of AR compared to the control group in 8 hours (AR mRNA [1]; 0.2 μM): 85%
Percent expression of AR compared to the control group in 24 hours (AR mRNA [1]; 0.2 μM): 18%
Percent expression of AR compared to the control group in 48 hours (AR mRNA [1]; 0.2 μM): 5%
Percent expression of AR compared to the control group in 8 hours (AR mRNA [1]; 1 μM): 68%
Percent expression of AR compared to the control group in 24 hours (AR mRNA [1]; 1 μM): 5%
Percent expression of AR compared to the control group in 48 hours (AR mRNA [1]; 1 μM): 6%
Percent expression of AR compared to the control group in 8 hours (AR mRNA [1]; 5.0 μM): 45%
Percent expression of AR compared to the control group in 24 hours (AR mRNA [1]; 5.0 μM): 4%
Percent expression of AR compared to the control group in 48 hours (AR mRNA [1]; 5.0 μM): 4%
AR expression (AR mRNA [1]; C4-2B cells, 8, 24 and 48 hours): reduced AR expression in the cells relative to the control set
Percent inhibition of AR V7 variant (AR V7 variant mRNA; CSS + DHT medium, 1.34 nM): 63%
Percent inhibition of AR V7 variant (AR V7 variant mRNA; CSS + DHT medium, 4.0 nM): 83%
Percent inhibition of AR V7 variant (AR V7 variant mRNA; CSS + DHT medium, 13.4 nM): 93%
Percent inhibition of AR V7 variant (AR V7 variant mRNA; complete medium, 1.34 nM): 12%
Percent inhibition of AR V7 variant (AR V7 variant mRNA; complete medium, 4.0 nM): 29%
Percent inhibition of AR V7 variant (AR V7 variant mRNA; complete medium, 13.4 nM): 57%
Percent inhibition of AR V7 variant (AR V7 variant mRNA; complete medium, 40 nM): 81%
Percent expression of AR (AR mRNA [2]; CSS + DHT medium, 0.04 μM): 55%
Percent expression of AR (AR mRNA [2]; CSS + DHT medium, 0.2 μM): 31%
Percent expression of AR (AR mRNA [2]; CSS + DHT medium, 1 μM): 15%
Percent expression of AR (AR mRNA [2]; CSS + DHT medium, 5.0 μM): 13%
Percent expression of AR (AR mRNA [2]; complete medium, 0.04 μM): 34%
Percent expression of AR (AR mRNA [2]; complete medium, 0.2 μM): 15%
Percent expression of AR (AR mRNA [2]; complete medium, 1 μM): 14%
Percent expression of AR (AR mRNA [2]; complete medium, 5.0 μM): 14%
PSA mRNA levels in LMR20 cells [3]: reduced PSA levels and TMPRSS2 more extensively than the LNA gapmer ISIS 554221 or MDV3100
Proliferation (% untreated control) in C4-2B with 0.08 μM MDV-3100 (C4-2B cells; [4]): 73 % untreated control
Proliferation (% untreated control) in C4-2B with 0.4 μM MDV-3100 (C4-2B cells; [5]): 69 % untreated control
Proliferation (% untreated control) in C4-2B with 2.0 μM MDV-3100 (C4-2B cells; [6]): 42 % untreated control
Proliferation (% untreated control) in C4-2B with […] MDV-3100 (C4-2B cells; [7]): 71 % untreated control
Proliferation (% untreated control) in C4-2B without MDV-3100 (C4-2B cells; ASO dose 0.04 μM): 59 % untreated control
Proliferation (% untreated control) in C4-2B with 0.08 μM MDV-3100 (C4-2B cells; [8]): 66 % untreated control
Proliferation (% untreated control) in C4-2B with 0.4 μM MDV-3100 (C4-2B cells; [9]): 69 % untreated control
Proliferation (% untreated control) in C4-2B with 2.0 μM MDV-3100 (C4-2B cells; [10]): 37 % untreated control
Proliferation (% untreated control) in C4-2B with […] MDV-3100 (C4-2B cells; [11]): 104 % untreated control
Proliferation (% untreated control) in C4-2B without MDV-3100 (C4-2B cells; ASO dose 0.08 μM): 84 % untreated control
Proliferation (% untreated control) in C4-2B with 0.08 μM MDV-3100 (C4-2B cells; [12]): 56 % untreated control
Proliferation (% untreated control) in C4-2B with 0.4 μM MDV-3100 (C4-2B cells; [13]): 48 % untreated control
Proliferation (% untreated control) in C4-2B with 2.0 μM MDV-3100 (C4-2B cells; [14]): 49 % untreated control
Proliferation (% untreated control) in C4-2B with […] MDV-3100 (C4-2B cells; ASO dose 0.2 μM + […] MDV-3100): 53 % untreated control
Proliferation (% untreated control) in C4-2B without MDV-3100 (C4-2B cells; ASO dose 0.2 μM): 47 % untreated control
Proliferation (% untreated control) in C4-2B with 0.08 μM MDV-3100 (C4-2B cells; [15]): 42 % untreated control
Proliferation (% untreated control) in C4-2B with 0.4 μM MDV-3100 (C4-2B cells; [16]): 48 % untreated control
Proliferation (% untreated control) in C4-2B with 2.0 μM MDV-3100 (C4-2B cells; [17]): 43 % untreated control
Proliferation (% untreated control) in C4-2B with […] MDV-3100 (C4-2B cells; ASO dose 1.0 μM + […] MDV-3100): 39 % untreated control
Proliferation (% untreated control) in C4-2B without MDV-3100 (C4-2B cells; ASO dose 1.0 μM): 41 % untreated control
synergy with MDV3100 (C4-2B cells; C4-2B cells): synergistic with MDV3100
cell proliferation inhibited, combination (C4-2B cells; C4-2B cells, 0.08 μM ASO in combination with 0.4 μM MDV3100): 31%
inhibited cell proliferation, ASO alone (C4-2B cells; C4-2B cells, ASO alone at 0.08 μM): 16%
Proliferation (% untreated control) in LNCaP with 0.08 μM MDV-3100 (LNCaP cells; [4]): 59 % untreated control
Proliferation (% untreated control) in LNCaP with 0.4 μM MDV-3100 (LNCaP cells; [5]): 50 % untreated control
Proliferation (% untreated control) in LNCaP with 2.0 μM MDV-3100 (LNCaP cells; [6]): 42 % untreated control
Proliferation (% untreated control) in LNCaP with […] MDV-3100 (LNCaP cells; [7]): 71 % untreated control
Proliferation (% untreated control) in LNCaP without MDV-3100 (LNCaP cells; ASO dose 0.04 μM): 76 % untreated control
Proliferation (% untreated control) in LNCaP with 0.08 μM MDV-3100 (LNCaP cells; [8]): 99 % untreated control
Proliferation (% untreated control) in LNCaP with 0.4 μM MDV-3100 (LNCaP cells; [9]): 68 % untreated control
Proliferation (% untreated control) in LNCaP with 2.0 μM MDV-3100 (LNCaP cells; [10]): 45 % untreated control
Proliferation (% untreated control) in LNCaP with […] MDV-3100 (LNCaP cells; [11]): 103 % untreated control
Proliferation (% untreated control) in LNCaP without MDV-3100 (LNCaP cells; ASO dose 0.08 μM): 106 % untreated control
Proliferation (% untreated control) in LNCaP with 0.08 μM MDV-3100 (LNCaP cells; [12]): 48 % untreated control
Proliferation (% untreated control) in LNCaP with 0.4 μM MDV-3100 (LNCaP cells; [13]): 40 % untreated control
Proliferation (% untreated control) in LNCaP with 2.0 μM MDV-3100 (LNCaP cells; [14]): 38 % untreated control
Proliferation (% untreated control) in LNCaP with […] MDV-3100 (LNCaP cells; ASO dose 0.2 μM + […] MDV-3100): 49 % untreated control
Proliferation (% untreated control) in LNCaP without MDV-3100 (LNCaP cells; ASO dose 0.2 μM): 50 % untreated control
Proliferation (% untreated control) in LNCaP with 0.08 μM MDV-3100 (LNCaP cells; [15]): 27 % untreated control
Proliferation (% untreated control) in LNCaP with 0.4 μM MDV-3100 (LNCaP cells; [16]): 26 % untreated control
Proliferation (% untreated control) in LNCaP with 2.0 μM MDV-3100 (LNCaP cells; [17]): 23 % untreated control
Proliferation (% untreated control) in LNCaP with […] MDV-3100 (LNCaP cells; ASO dose 1.0 μM + […] MDV-3100): 25 % untreated control
Proliferation (% untreated control) in LNCaP without MDV-3100 (LNCaP cells; ASO dose 1.0 μM): 26 % untreated control
synergy with MDV3100 (LNCaP cells; LNCaP cells): synergistic with MDV3100
cell proliferation inhibited, combination (LNCaP cells; LNCaP cells, 0.04 μM ASO in combination with 0.08 μM MDV3100): 41%
inhibited cell proliferation, ASO alone (LNCaP cells; LNCaP cells, ASO alone at 0.04 μM): 24%
Percent inhibition of TMPRSS2 expression (TMPRSS2 mRNA; CSS + DHT medium, 0.04 μM): 0%
Percent inhibition of TMPRSS2 expression (TMPRSS2 mRNA; CSS + DHT medium, 0.2 μM): 34%
Percent inhibition of TMPRSS2 expression (TMPRSS2 mRNA; CSS + DHT medium, 1 μM): 60%
Percent inhibition of TMPRSS2 expression (TMPRSS2 mRNA; CSS + DHT medium, 5.0 μM): 76%
Percent inhibition of TMPRSS2 expression (TMPRSS2 mRNA; complete medium, 0.04 μM): 46%
Percent inhibition of TMPRSS2 expression (TMPRSS2 mRNA; complete medium, 0.2 μM): 71%
Percent inhibition of TMPRSS2 expression (TMPRSS2 mRNA; complete medium, 1 μM): 72%
Percent inhibition of TMPRSS2 expression (TMPRSS2 mRNA; complete medium, 5.0 μM): 75%
